Measured values reported in ChEMBL document CHEMBL5442219.

Key:
Details in all cases: Compound concentration 10 µM
[1] = molecular target: D(3) dopamine receptor (Homo sapiens) (UniProt P35462)
Description: PDSP Primary Binding target: DRD3 - Compounds are tested at 10 uM concentration, plate are incubated at room temperature in the dark for 90 minutes. Reaction are stopped by vacuum filtration onto 0.3% polyethyleneimine soaked filter mats using Filtermate harvester. Scintilation cocktail is then melted onto microwave-dried filters on a hot plate and the radio activity is counted in Microbia counter.

[2] = molecular target: T1, 5-hydroxytryptamine receptor 1A (Homo sapiens) (UniProt P08908)
T1 sequence (whole entry): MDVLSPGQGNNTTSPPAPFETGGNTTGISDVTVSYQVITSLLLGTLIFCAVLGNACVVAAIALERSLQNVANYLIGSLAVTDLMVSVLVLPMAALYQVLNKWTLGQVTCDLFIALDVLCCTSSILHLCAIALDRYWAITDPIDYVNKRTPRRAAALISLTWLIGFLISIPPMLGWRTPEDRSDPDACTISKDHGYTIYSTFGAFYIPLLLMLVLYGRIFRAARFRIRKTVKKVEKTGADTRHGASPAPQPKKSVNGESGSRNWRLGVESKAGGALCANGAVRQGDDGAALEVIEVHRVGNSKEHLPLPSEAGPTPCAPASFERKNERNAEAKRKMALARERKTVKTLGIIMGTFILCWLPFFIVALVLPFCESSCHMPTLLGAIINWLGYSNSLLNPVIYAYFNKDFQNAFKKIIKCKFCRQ
Description: PDSP Primary Binding target: HTR1A - Compounds are tested at 10 uM concentration, plate are incubated at room temperature in the dark for 90 minutes. Reaction are stopped by vacuum filtration onto 0.3% polyethyleneimine soaked filter mats using Filtermate harvester. Scintilation cocktail is then melted onto microwave-dried filters on a hot plate and the radio activity is counted in Microbia counter.

[3] = molecular target: 5-hydroxytryptamine receptor 2B (Homo sapiens) (UniProt P41595)
5-hydroxytryptamine receptor 2B (Homo sapiens), sequence (P41595 whole entry): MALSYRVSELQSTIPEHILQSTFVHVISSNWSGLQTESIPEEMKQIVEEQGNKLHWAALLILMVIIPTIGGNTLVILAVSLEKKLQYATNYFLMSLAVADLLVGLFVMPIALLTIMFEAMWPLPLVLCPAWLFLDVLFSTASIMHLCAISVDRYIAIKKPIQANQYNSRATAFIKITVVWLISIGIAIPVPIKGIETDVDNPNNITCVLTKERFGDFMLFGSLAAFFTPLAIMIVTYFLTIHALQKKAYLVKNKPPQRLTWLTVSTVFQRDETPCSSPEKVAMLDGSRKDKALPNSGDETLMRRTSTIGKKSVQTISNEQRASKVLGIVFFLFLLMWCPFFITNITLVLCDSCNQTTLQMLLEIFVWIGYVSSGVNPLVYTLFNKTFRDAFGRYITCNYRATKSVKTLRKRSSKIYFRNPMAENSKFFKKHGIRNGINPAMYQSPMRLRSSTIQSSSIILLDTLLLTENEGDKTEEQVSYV
Description: PDSP Primary Binding target: HTR2B - Compounds are tested at 10 uM concentration, plate are incubated at room temperature in the dark for 90 minutes. Reaction are stopped by vacuum filtration onto 0.3% polyethyleneimine soaked filter mats using Filtermate harvester. Scintilation cocktail is then melted onto microwave-dried filters on a hot plate and the radio activity is counted in Microbia counter.

[4] = molecular target: T2, 5-hydroxytryptamine receptor 2C (Homo sapiens) (UniProt P28335)
T2 sequence (whole entry): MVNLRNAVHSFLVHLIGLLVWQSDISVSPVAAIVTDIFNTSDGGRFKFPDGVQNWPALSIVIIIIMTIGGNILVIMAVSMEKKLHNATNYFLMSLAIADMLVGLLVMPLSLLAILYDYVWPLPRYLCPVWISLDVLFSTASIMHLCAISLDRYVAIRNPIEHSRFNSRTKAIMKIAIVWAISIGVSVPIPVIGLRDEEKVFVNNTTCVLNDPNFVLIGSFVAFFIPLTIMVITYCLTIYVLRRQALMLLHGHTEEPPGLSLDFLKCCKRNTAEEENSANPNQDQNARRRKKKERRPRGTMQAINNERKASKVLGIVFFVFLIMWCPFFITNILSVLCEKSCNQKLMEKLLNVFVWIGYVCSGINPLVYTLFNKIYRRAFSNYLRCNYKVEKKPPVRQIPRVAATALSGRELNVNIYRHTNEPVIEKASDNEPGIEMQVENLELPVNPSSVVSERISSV
Description: PDSP Primary Binding target: HTR2C - Compounds are tested at 10 uM concentration, plate are incubated at room temperature in the dark for 90 minutes. Reaction are stopped by vacuum filtration onto 0.3% polyethyleneimine soaked filter mats using Filtermate harvester. Scintilation cocktail is then melted onto microwave-dried filters on a hot plate and the radio activity is counted in Microbia counter.

[5] = molecular target: T3, 5-hydroxytryptamine receptor 3A (Homo sapiens) (UniProt P46098)
T3 sequence (whole entry): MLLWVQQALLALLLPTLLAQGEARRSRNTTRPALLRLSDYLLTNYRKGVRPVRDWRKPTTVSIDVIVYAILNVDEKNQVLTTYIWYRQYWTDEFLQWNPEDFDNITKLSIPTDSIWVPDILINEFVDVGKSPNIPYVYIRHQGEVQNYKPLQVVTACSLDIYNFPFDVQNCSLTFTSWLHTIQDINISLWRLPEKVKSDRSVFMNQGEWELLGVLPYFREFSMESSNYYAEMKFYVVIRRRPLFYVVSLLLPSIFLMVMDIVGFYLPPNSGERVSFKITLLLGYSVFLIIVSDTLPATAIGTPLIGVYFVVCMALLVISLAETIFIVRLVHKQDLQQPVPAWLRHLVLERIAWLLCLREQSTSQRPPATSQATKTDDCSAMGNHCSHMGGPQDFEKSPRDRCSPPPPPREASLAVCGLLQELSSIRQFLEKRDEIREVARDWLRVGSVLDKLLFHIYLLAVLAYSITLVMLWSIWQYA
Description: PDSP Primary Binding target: HTR3A - Compounds are tested at 10 uM concentration, plate are incubated at room temperature in the dark for 90 minutes. Reaction are stopped by vacuum filtration onto 0.3% polyethyleneimine soaked filter mats using Filtermate harvester. Scintilation cocktail is then melted onto microwave-dried filters on a hot plate and the radio activity is counted in Microbia counter.

[6] = molecular target: 5-hydroxytryptamine receptor 5A (Homo sapiens) (UniProt P47898)
5-hydroxytryptamine receptor 5A (Homo sapiens), sequence (P47898 whole entry): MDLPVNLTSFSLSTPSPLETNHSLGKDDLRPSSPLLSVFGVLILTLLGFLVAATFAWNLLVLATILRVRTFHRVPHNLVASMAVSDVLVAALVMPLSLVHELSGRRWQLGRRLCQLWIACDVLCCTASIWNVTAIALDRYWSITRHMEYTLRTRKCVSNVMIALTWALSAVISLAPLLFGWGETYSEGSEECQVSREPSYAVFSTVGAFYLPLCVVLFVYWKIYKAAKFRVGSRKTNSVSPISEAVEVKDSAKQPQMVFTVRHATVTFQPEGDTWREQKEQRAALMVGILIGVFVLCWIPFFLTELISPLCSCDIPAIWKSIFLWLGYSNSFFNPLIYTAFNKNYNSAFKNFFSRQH
Description: PDSP Primary Binding target: HTR5A - Compounds are tested at 10 uM concentration, plate are incubated at room temperature in the dark for 90 minutes. Reaction are stopped by vacuum filtration onto 0.3% polyethyleneimine soaked filter mats using Filtermate harvester. Scintilation cocktail is then melted onto microwave-dried filters on a hot plate and the radio activity is counted in Microbia counter.

[7] = molecular target: Kappa-type opioid receptor (Homo sapiens) (UniProt P41145)
Kappa-type opioid receptor (Homo sapiens), sequence (P41145 whole entry): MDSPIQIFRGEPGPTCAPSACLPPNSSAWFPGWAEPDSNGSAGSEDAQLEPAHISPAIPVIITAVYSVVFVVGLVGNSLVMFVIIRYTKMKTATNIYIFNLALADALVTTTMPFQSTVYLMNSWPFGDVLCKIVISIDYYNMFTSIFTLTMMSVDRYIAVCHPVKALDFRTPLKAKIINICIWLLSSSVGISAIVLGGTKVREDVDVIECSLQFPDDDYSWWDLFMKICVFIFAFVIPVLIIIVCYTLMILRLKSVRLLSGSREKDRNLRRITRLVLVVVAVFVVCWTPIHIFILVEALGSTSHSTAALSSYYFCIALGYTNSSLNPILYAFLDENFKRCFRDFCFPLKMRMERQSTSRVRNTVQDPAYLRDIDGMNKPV
Description: PDSP Primary Binding target: OPRK1 - Compounds are tested at 10 uM concentration, plate are incubated at room temperature in the dark for 90 minutes. Reaction are stopped by vacuum filtration onto 0.3% polyethyleneimine soaked filter mats using Filtermate harvester. Scintilation cocktail is then melted onto microwave-dried filters on a hot plate and the radio activity is counted in Microbia counter.

[8] = molecular target: Sigma non-opioid intracellular receptor 1 (Homo sapiens) (UniProt Q99720)
Sigma non-opioid intracellular receptor 1 (Homo sapiens), sequence (Q99720 whole entry): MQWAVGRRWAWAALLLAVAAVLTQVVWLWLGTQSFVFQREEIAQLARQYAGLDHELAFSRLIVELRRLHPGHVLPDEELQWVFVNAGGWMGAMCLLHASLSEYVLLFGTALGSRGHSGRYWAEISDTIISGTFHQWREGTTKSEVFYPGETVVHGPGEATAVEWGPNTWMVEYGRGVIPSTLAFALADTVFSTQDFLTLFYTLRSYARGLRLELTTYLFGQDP
Description: PDSP Primary Binding target: SIGMAR1 - Compounds are tested at 10 uM concentration, plate are incubated at room temperature in the dark for 90 minutes. Reaction are stopped by vacuum filtration onto 0.3% polyethyleneimine soaked filter mats using Filtermate harvester. Scintilation cocktail is then melted onto microwave-dried filters on a hot plate and the radio activity is counted in Microbia counter.

[9] = molecular target: T4, Alpha-2B adrenergic receptor (Homo sapiens) (UniProt P18089)
T4 sequence (whole entry): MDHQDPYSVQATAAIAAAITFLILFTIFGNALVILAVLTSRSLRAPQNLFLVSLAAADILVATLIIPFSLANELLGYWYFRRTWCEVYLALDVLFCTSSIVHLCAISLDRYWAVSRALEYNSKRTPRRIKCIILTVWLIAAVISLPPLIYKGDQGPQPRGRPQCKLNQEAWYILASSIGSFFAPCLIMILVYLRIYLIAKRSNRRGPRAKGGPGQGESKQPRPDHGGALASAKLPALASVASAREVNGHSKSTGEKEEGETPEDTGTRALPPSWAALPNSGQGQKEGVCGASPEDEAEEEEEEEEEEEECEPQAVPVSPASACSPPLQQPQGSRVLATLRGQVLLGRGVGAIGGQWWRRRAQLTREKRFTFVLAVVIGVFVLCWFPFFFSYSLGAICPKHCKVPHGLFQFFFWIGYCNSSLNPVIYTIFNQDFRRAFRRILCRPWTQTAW
Description: PDSP Primary Binding target: ADRA2B - Compounds are tested at 10 uM concentration, plate are incubated at room temperature in the dark for 90 minutes. Reaction are stopped by vacuum filtration onto 0.3% polyethyleneimine soaked filter mats using Filtermate harvester. Scintilation cocktail is then melted onto microwave-dried filters on a hot plate and the radio activity is counted in Microbia counter.

[10] = molecular target: T5, Muscarinic acetylcholine receptor M2 (Homo sapiens) (UniProt P08172)
T5 sequence (whole entry): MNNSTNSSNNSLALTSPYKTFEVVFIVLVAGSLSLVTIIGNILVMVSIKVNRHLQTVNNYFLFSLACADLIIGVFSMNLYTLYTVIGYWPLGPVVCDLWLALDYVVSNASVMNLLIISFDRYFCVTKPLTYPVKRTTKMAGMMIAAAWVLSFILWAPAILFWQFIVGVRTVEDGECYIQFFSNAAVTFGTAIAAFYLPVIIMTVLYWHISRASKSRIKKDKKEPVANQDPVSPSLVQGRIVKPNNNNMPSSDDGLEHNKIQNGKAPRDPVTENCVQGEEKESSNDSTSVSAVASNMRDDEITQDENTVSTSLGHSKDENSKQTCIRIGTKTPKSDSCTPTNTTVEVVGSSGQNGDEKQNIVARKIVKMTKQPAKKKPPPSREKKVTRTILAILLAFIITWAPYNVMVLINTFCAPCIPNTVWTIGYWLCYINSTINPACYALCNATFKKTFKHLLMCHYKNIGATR
Description: PDSP Primary Binding target: CHRM2 - Compounds are tested at 10 uM concentration, plate are incubated at room temperature in the dark for 90 minutes. Reaction are stopped by vacuum filtration onto 0.3% polyethyleneimine soaked filter mats using Filtermate harvester. Scintilation cocktail is then melted onto microwave-dried filters on a hot plate and the radio activity is counted in Microbia counter.

D(3) dopamine receptor (Homo sapiens), sequence (P35462 whole entry): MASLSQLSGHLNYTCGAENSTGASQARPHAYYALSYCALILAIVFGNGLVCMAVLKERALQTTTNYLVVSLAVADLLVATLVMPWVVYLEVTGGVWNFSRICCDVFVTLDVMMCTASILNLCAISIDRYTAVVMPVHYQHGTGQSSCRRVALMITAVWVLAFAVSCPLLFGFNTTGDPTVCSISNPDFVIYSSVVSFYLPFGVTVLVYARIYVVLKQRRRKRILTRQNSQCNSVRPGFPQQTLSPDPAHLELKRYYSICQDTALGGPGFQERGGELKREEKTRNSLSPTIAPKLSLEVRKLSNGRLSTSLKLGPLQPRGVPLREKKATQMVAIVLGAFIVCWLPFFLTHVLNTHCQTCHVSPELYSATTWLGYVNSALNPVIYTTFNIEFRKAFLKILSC

SMILES | inhibition [1] [%] | inhibition [2] [%] | inhibition [3] [%] | inhibition [4] [%] | inhibition [5] [%] | inhibition [6] [%] | inhibition [7] [%] | inhibition [8] [%] | inhibition [9] [%] | inhibition [10] [%]
CC(C)NCC(O)COc1cccc2ccccc12 (configuration not stated) | 23.3 | 77.5 | 86.3 | 68 | 8.73 | -2.95 | 16.1 | 54.7 | – | –
CNC[C@H](O)c1cccc(O)c1 | 12.7 | 1.52 | 20.3 | 16.3 | 0.2 | 26.3 | – | – | 21.3 | –
OC1(c2ccc(Cl)cc2)CCN(Cc2c[nH]c3ccccc23)CC1 | 88.8 | 2 | 73.8 | 18.8 | -7.87 | 37.7 | 3.1 | 2.38 | 83.8 | –
O=C(c1cc2c(cc1F)OC(c1ccc(F)cc1)(c1ccc(Cl)cc1Cl)O2)N1CCOCC1 (configuration not stated) | 27.4 | 5.52 | 85.6 | 73.4 | 1.36 | -2.04 | 71.4 | 48.5 | 28.5 | –
COc1ccccc1CN[C@H]1C2CCN(CC2)[C@H]1C(c1ccccc1)c1ccccc1 | 43 | -1.15 | 0.68 | -3.39 | 13.6 | 19.7 | 49.1 | 48.5 | 3.23 | –
Cc1cccc([C@H](C)c2c[nH]cn2)c1C | 21.5 | -0.33 | 51.3 | 14.5 | 13.3 | -0.76 | – | 1.54 | 97.8 | –
O=c1ccn([C@@H]2O[C@H](COP(=O)(O)OP(=O)(O)O)[C@@H](O)[C@H]2O)c(=O)[nH]1 | 7.98 | 5.47 | 0.47 | 3.57 | – | – | 6.04 | 4.23 | -3.44 | 15.9
CN1C(=O)[C@@H](NC(=O)c2cc3ccccc3[nH]2)N=C(c2ccccc2)c2ccccc21 | 26.4 | -1.26 | 78.4 | 16.1 | 2.09 | -2.34 | 30.7 | – | 34.7 | –
COc1ccc(S(=O)(=O)c2cc(OC)ccc2S(=O)(=O)c2ccc([C@H](C)NS(C)(=O)=O)cc2)cc1 | 73.4 | – | 23.7 | 18.7 | -2.2 | 6.79 | 2.71 | 23.1 | 0.09 | –
N=C(N)SCCc1c[nH]cn1 | -0.38 | – | 33 | -2.06 | 45.7 | -5.14 | 5.15 | 13.1 | 17.9 | –
CN1CC(=O)N=C1NC(=O)Nc1cccc(Cl)c1 | -3.16 | – | 48.7 | 5.25 | -5.43 | 18.4 | 2.28 | 3.26 | -6.21 | –
CCN(CC)CCCCC1CCN(CC(=O)N2c3ccccc3C(=O)Nc3cccnc32)CC1 | 13.8 | 0.4 | 13.9 | – | 3.5 | – | – | – | -3.71 | 81.4
CSc1ccc(C(=O)N[C@@H]2CCCC[C@@H]2NC(=O)CNC(=O)c2cc(C(F)(F)F)ccc2NC(=O)NC(C)C)cc1 | 86.6 | 22.6 | 27.9 | 33.2 | -5.92 | 5.1 | 15.3 | 22.2 | 10.8 | –
CCc1cc2c(c(CC)n1)CCC(=O)N2Cc1ccc(-c2ccccc2-c2nnn[nH]2)cc1 | 87.1 | -4.87 | 10.5 | – | 8.33 | -4.8 | 3.59 | 24.9 | 3.95 | –
CCc1cc(C(C)=O)c(O)cc1OCCCCCC(C)(C)c1nn[nH]n1 | 46.8 | -8.57 | 64.2 | 0.93 | -9.38 | 8.4 | 16.9 | 61.4 | 15.2 | –
C/C(=N\NC(=O)[C@@H]1C(=O)NC[C@H]1c1ccccc1)c1cccc(Br)c1 | – | 26.4 | 14.3 | 33.4 | -4.26 | 18.8 | 19.1 | 21.3 | -7.62 | –
S=C(NCCCc1c[nH]cn1)NCCCN(Cc1ccc(Cl)c(Cl)c1)c1ccc(Br)cn1 | 62.3 | 43.2 | 94.5 | 100 | 33.5 | 96.7 | 64.9 | 1.54 | 94.8 | –
C[C@@H](NCCc1ccc(O)cc1)[C@@H](O)c1ccc(O)cc1 (relative stereo) | 34.6 | -2.23 | 34.1 | -0.38 | – | – | 23.2 | 75 | 5.66 | 3.91
Cc1csc2c(N[C@@H](C)CN3CCN(S(=O)(=O)c4ccc(Cl)c(Cl)c4)CC3)ncnc12 | 67.4 | 17 | 32.3 | – | – | – | 85.4 | 86 | -6.72 | 1.88
Nc1nc2c(c(N3CCNCC3)n1)CCC1=C2[C@@H]2CCCC[C@@H]2O1 | – | 49.9 | 81.8 | 7.29 | 98.1 | -4.34 | – | 86.4 | 31.9 | –
O=C(O)CC/C=C\C[C@@H]1CO[C@H](c2ccccc2Cl)O[C@@H]1c1ccccc1O | 40 | 16.9 | – | -5.63 | – | – | 5.7 | -1.8 | – | -3.76
